pIC50: −log10 of the molar value. Where two headings read alike, the source gives them in different places.
Legend:
[1] = biological target: T1, glucosylceramide synthase (Homo sapiens, UniProt Q16739); experiment: microsomal assay measuring conversion of ceramide to glucosylceramide by HPLC (GCS IC50); assay type: biochemical; conditions: concentration causing 50% inhibition of glucosylceramide synthase activity
T1 construct: Microsomes were isolated from A375 human melanoma cells; endogenous in cells; host or cells: A375 human melanoma cells (microsomal fraction, 100,000 g pellet)
T1 sequence (Q16739 1-394): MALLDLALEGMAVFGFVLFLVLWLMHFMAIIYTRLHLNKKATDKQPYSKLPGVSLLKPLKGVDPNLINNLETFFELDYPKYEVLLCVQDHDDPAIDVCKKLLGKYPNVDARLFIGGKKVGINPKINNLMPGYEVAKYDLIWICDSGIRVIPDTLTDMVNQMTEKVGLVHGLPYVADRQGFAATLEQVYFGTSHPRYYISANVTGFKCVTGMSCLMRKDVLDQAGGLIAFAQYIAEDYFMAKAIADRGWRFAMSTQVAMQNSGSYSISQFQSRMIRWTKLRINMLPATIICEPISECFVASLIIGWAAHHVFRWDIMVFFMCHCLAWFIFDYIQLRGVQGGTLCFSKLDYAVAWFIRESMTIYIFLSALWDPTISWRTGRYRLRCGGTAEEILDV
Procedure, shortened: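 Microsomal preparation assayed for glucosylceramide synthase by direct HPLC measurement of ceramide conversion to glucosylceramide. GCS IC50 is the compound concentration giving 50% inhibition of enzyme activity.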

[2] = test system: GM3 expression on the cell surface, B16 mouse melanoma cells; experiment: cell based phenotypic assay, cell surface GM3 by antibody mediated immunofluorescence, B16 (GM3 B16 IC50); conditions: Mus musculus, 50% inhibition of GM3 expression on the cell surface
Procedure, shortened: (§1)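 Two melanoma lines, mouse B16 and human C32, were treated and surface GM3 quantified by antibody immunofluorescence for IC50. A parallel viability readout gives the concentration killing 50% of cells, with values over 10 indicating no cell death.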

[3] = test system: GM3 expression on the cell surface, C32 human melanoma cells; experiment: cell based phenotypic assay, cell surface GM3 by antibody mediated immunofluorescence, C32 (GM3 C32 IC50); conditions: Homo sapiens, 50% inhibition of GM3 expression on the cell surface
Procedure, shortened: as §1

B16 mouse melanoma cells = experiment: cell viability in the B16 cell-based assay (Viability, B16 IC50)
Procedure, shortened: (§2)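 Both lines undergo the phenotypic GM3 assay, and viability is recorded from that same cell-based run.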

C32 human melanoma cells = experiment: cell viability in the C32 cell-based assay (Viability, C32 IC50); conditions: concentration causing 50% cell death, values greater than 10 represent a lack of cell death
Procedure, shortened: as §2

[4] = read-out: GM3 B16 IC50, B16 mouse melanoma cells
[5] = read-out: GM3 C32 IC50, C32 human melanoma cells
[6] = Mus musculus, B16, read-out: Viability, B16 IC50
[7] = Homo sapiens, C32, read-out: Viability, C32 IC50, C32 cells
[8] = B16 mouse melanoma cells, read-out: GM3 B16 IC50
[9] = C32 human melanoma cells, read-out: GM3 C32 IC50
[10] = Mus musculus, B16, B16 cells, concentration causing 50% cell death, values greater than 10 represent a lack of cell death, read-out: Viability, B16 IC50
[11] = Homo sapiens, C32, C32 cells, read-out: Viability, C32 IC50

CC(C)(NC(=O)OC1CN2CCC1CC2)c1ccc(-c2ccc(CCO)cc2)cc1 (stereo not drawn) [Example 226, Quinuclidin-3-yl (2-(4′-(2-hydroxyethyl)-[1,1′-biphenyl]-4-yl)propan-2-yl)carbamate]
pIC50 [1]: 6.83 | pIC50 [2, 4]: 6.18 | pIC50 [3, 5]: 7.65 | pIC50 (B16 mouse melanoma cells; read-out: Viability, B16 IC50, B16 cells, concentration causing 50% cell death, values greater than 10 represent a lack of cell death): ≤ 5.00 | pIC50 (C32 human melanoma cells; read-out: Viability, C32 IC50, C32 cells): ≤ 5.00

CC(C)(NC(=O)OC1CN2CCC1CC2)c1ccc(-c2ccc(CCc3c[nH]nn3)cc2)cc1 (stereo not drawn) [Example 227, Quinuclidin-3-yl (2-(4′-(2-(1H-1,2,3-triazol-4-yl)ethyl)-[1,1′-biphenyl]-4-yl)propan-2-yl)carbamate]
pIC50 [1]: 7.57 | pIC50 [2, 4]: 6.91 | pIC50 [3, 5]: 7.98 | pIC50 (B16 mouse melanoma cells; [6]): ≤ 5.00 | pIC50 (C32 human melanoma cells; [7]): 6.00

CC(C)(NC(=O)OC1CCN2CCC1CC2)c1ccc(-c2ccc(CCc3c[nH]nn3)cc2)cc1 (stereo not drawn) [Example 228, 1-Azabicyclo[3.2.2]nonan-4-yl (2-(4′-(2-(1H-1,2,3-triazol-4-yl)ethyl)-[1,1′-biphenyl]-4-yl)propan-2-yl)carbamate]
pIC50 [1]: 7.74 | pIC50 [2, 8]: 7.09 | pIC50 [3, 9]: 8.22 | pIC50 (B16 mouse melanoma cells; [10]): 5.12 | pIC50 (C32 human melanoma cells; [11]): 5.50

CC(C)(NC(=O)OC1CN2CCC1CC2)c1ccc(-c2ccc(CN3CCOCC3)cc2)cc1 (stereo not drawn) [Example 229, Quinuclidin-3-yl (2-(4′-(morpholinomethyl)-[1,1′-biphenyl]-4-yl)propan-2-yl)carbamate]
pIC50 [1]: 6.80 | pIC50 [2, 4]: 6.28 | pIC50 [3, 5]: 7.27 | pIC50 (B16 mouse melanoma cells; [6]): ≤ 5.00 | pIC50 (C32 human melanoma cells; [7]): ≤ 5.00

CC(C)(NC(=O)N1CCN2CCC1CC2)c1ccc(-c2ccc(CN3CCOCC3)cc2)cc1 [Example 230, N-(2-(4′-(Morpholinomethyl)-[1,1′-biphenyl]-4-yl)propan-2-yl)-1,4-diazabicyclo[3.2.2]nonane-4-carboxamide]
pIC50 [1]: 5.64 | pIC50 [2, 8]: 5.75 | pIC50 [3, 9]: 6.38 | pIC50 (B16 mouse melanoma cells; [10]): ≤ 5.00 | pIC50 (C32 human melanoma cells; [11]): ≤ 5.00

CC(C)(NC(=O)OC1CN2CCC1CC2)c1ccc(-c2ccc(N3CCOCC3)cc2)cc1 (stereo not drawn) [Example 231, Quinuclidin-3-yl (2-(4′-morpholino-[1,1′-biphenyl]-4-yl)propan-2-yl)carbamate]
pIC50 [1]: 7.15 | pIC50 [2, 4]: 6.64 | pIC50 [3, 5]: 7.82 | pIC50 (B16 mouse melanoma cells; [6]): 5.70 | pIC50 (C32 human melanoma cells; [7]): 5.70

CC(C)(NC(=O)NC1(C)CN2CCC1CC2)c1ccc(-c2ccc(N3CCOCC3)cc2)cc1 (stereo not drawn) [Example 232, 1-(3-Methylquinuclidin-3-yl)-3-(2-(4′-morpholino-[1,1′-biphenyl]-4-yl)propan-2-yl)urea]
pIC50 [1]: 7.51 | pIC50 [2, 8]: 7.19 | pIC50 [3, 9]: 8.14 | pIC50 (B16 mouse melanoma cells; [10]): 6.00 | pIC50 (C32 human melanoma cells; [11]): 6.00

CC(C)(NC(=O)NC1(C)CCN2CCC1CC2)c1ccc(-c2ccc(N3CCOCC3)cc2)cc1 (stereo not drawn) [Example 233, 1-(4-Methyl-1-azabicyclo[3.2.2]nonan-4-yl)-3-(2-(4′-morpholino-[1,1′-biphenyl]-4-yl)propan-2-yl)urea]
pIC50 [1]: 8.25 | pIC50 [2, 8]: 8.26 | pIC50 [3, 9]: 9.14 | pIC50 (B16 mouse melanoma cells; [10]): 6.00 | pIC50 (C32 human melanoma cells; [11]): 6.00

CCC1(NC(=O)NC(C)(C)c2ccc(-c3ccc(N4CCOCC4)cc3)cc2)CN2CCC1CC2 (stereo not drawn) [Example 234, 1-(3-Ethylquinuclidin-3-yl)-3-(2-(4′-morpholino-[1,1′-biphenyl]-4-yl)propan-2-yl)urea]
pIC50 [1]: 7.84 | pIC50 [2, 8]: 7.49 | pIC50 [3, 9]: 8.74 | pIC50 (B16 mouse melanoma cells; [10]): 6.00 | pIC50 (C32 human melanoma cells; [11]): 6.00

CC(C)(NC(=O)OC1CN2CCC1CC2)c1ccc(-c2ccc(S(C)(=O)=O)cc2)cc1 (stereo not drawn) [Example 235, Quinuclidin-3-yl (2-(4′-(methylsulfonyl)-[1,1′-biphenyl]-4-yl)propan-2-yl)carbamate]
pIC50 [1]: 6.95 | pIC50 [2, 4]: 6.93 | pIC50 [3, 5]: 7.70 | pIC50 (B16 mouse melanoma cells; [6]): ≤ 5.00 | pIC50 (C32 human melanoma cells; [7]): ≤ 5.00

CCC1(NC(=O)NC(C)(C)c2ccc(-c3ccc(S(C)(=O)=O)cc3)cc2)CN2CCC1CC2 (stereo not drawn) [Example 236, 1-(3-Ethylquinuclidin-3-yl)-3-(2-(4′-(methylsulfonyl)-[1,1′-biphenyl]-4-yl)propan-2-yl)urea]
pIC50 [1]: 7.27 | pIC50 [2, 8]: 7.13 | pIC50 [3, 9]: 8.02 | pIC50 (B16 mouse melanoma cells; [10]): ≤ 5.00 | pIC50 (C32 human melanoma cells; [11]): ≤ 5.00

CCCC1(NC(=O)NC(C)(C)c2ccc(-c3ccc(S(C)(=O)=O)cc3)cc2)CN2CCC1CC2 (stereo not drawn) [Example 237, 1-(2-(4′-(Methylsulfonyl)-[1,1′-biphenyl]-4-yl)propan-2-yl)-3-(3-propylquinuclidin-3-yl)urea]
pIC50 [1]: 7.45 | pIC50 [2, 8]: 7.48 | pIC50 [3, 9]: 8.17 | pIC50 (B16 mouse melanoma cells; [10]): ≤ 5.00 | pIC50 (C32 human melanoma cells; [11]): ≤ 5.00

CC(C)(NC(=O)OC1CN2CCC1CC2)c1ccc(-c2ccc(S(=O)(=O)CC3CC3)cc2)cc1 (stereo not drawn) [Example 238, Quinuclidin-3-yl (2-(4′-((cyclopropylmethyl)sulfonyl)-[1,1′-biphenyl]-4-yl)propan-2-yl)carbamate]
pIC50 [1]: 7.81 | pIC50 [2, 4]: 7.30 | pIC50 [3, 5]: 8.35 | pIC50 (B16 mouse melanoma cells; [6]): ≤ 5.00 | pIC50 (C32 human melanoma cells; [7]): 6.00

CCC1(NC(=O)NC(C)(C)c2ccc(-c3ccc(S(=O)(=O)CC4CC4)cc3)cc2)CN2CCC1CC2 (stereo not drawn) [Example 239, 1-(2-(4′-((Cyclopropylmethyl)sulfonyl)-[1,1′-biphenyl]-4-yl)propan-2-yl)-3-(3-ethylquinuclidin-3-yl)urea]
pIC50 [1]: 8.01 | pIC50 [2, 8]: 7.55 | pIC50 [3, 9]: 8.49 | pIC50 (B16 mouse melanoma cells; [10]): ≤ 5.00 | pIC50 (C32 human melanoma cells; [11]): 6.00

CC(C)(NC(=O)NC1(C)CN2CCC1CC2)c1ccc(-c2ccc(S(=O)(=O)CC3CC3)cc2)cc1 (stereo not drawn) [Example 240, 1-(2-(4′-((Cyclopropylmethyl)sulfonyl)-[1,1′-biphenyl]-4-yl)propan-2-yl)-3-(3-methylquinuclidin-3-yl)urea]
pIC50 [1]: 7.88 | pIC50 [2, 8]: 7.06 | pIC50 [3, 9]: 8.22 | pIC50 (B16 mouse melanoma cells; [10]): ≤ 5.00 | pIC50 (C32 human melanoma cells; [11]): 6.00

CC(C)(NC(=O)OC1CCN2CCC1CC2)c1ccc(-c2ccc(S(=O)(=O)CC3CC3)cc2)cc1 (stereo not drawn) [Example 241, 1-Azabicyclo[3.2.2]nonan-4-yl (2-(4′-((cyclopropylmethyl)sulfonyl)-[1,1′-biphenyl]-4-yl)propan-2-yl)carbamate]
pIC50 [1]: 8.37 | pIC50 [2, 8]: 7.91 | pIC50 [3, 9]: 8.84 | pIC50 (B16 mouse melanoma cells; [10]): ≤ 5.00 | pIC50 (C32 human melanoma cells; [11]): 5.50

COCCCS(=O)(=O)c1ccc(-c2ccc(C(C)(C)NC(=O)OC3CN4CCC3CC4)cc2)cc1 (stereo not drawn) [Example 242, Quinuclidin-3-yl (2-(4′-((3-methoxypropyl)sulfonyl)-[1,1′-biphenyl]-4-yl)propan-2-yl)carbamate]
pIC50 [1]: 7.49 | pIC50 [2, 4]: 7.08 | pIC50 [3, 5]: 7.99 | pIC50 (B16 mouse melanoma cells; [6]): ≤ 5.00 | pIC50 (C32 human melanoma cells; [7]): 5.50

CCC1(NC(=O)NC(C)(C)c2ccc(-c3ccc(S(=O)(=O)CCCOC)cc3)cc2)CN2CCC1CC2 (stereo not drawn) [Example 243, 1-(3-Ethylquinuclidin-3-yl)-3-(2-(4′-((3-methoxypropyl)sulfonyl)-[1,1′-biphenyl]-4-yl)propan-2-yl)urea]
pIC50 [1]: 7.48 | pIC50 [2, 8]: 7.24 | pIC50 [3, 9]: 8.13 | pIC50 (B16 mouse melanoma cells; [10]): ≤ 5.00 | pIC50 (C32 human melanoma cells; [11]): 5.50

CCCC1(NC(=O)NC(C)(C)c2ccc(-c3ccc(S(=O)(=O)CCCOC)cc3)cc2)CN2CCC1CC2 (stereo not drawn) [Example 244, 1-(2-(4′-((3-Methoxypropyl)sulfonyl)-[1,1′-biphenyl]-4-yl)propan-2-yl)-3-(3-propylquinuclidin-3-yl)urea]
pIC50 [1]: 7.43 | pIC50 [2, 8]: 7.47 | pIC50 [3, 9]: 8.16 | pIC50 (B16 mouse melanoma cells; [10]): ≤ 5.00 | pIC50 (C32 human melanoma cells; [11]): 5.50

CC(C)(C)CCS(=O)(=O)c1ccc(-c2ccc(C(C)(C)NC(=O)OC3CN4CCC3CC4)cc2)cc1 (stereo not drawn) [Example 245, Quinuclidin-3-yl (2-(4′-((3,3-dimethylbutyl)sulfonyl)-[1,1′-biphenyl]-4-yl)propan-2-yl)carbamate]
pIC50 [1]: 8.73 | pIC50 [2, 4]: 7.18 | pIC50 [3, 5]: 9.15 | pIC50 (B16 mouse melanoma cells; [6]): 5.17 | pIC50 (C32 human melanoma cells; [7]): 6.50

CC(C)(C)CCS(=O)(=O)c1ccc(-c2ccc(C(C)(C)NC(=O)NC3(C)CN4CCC3CC4)cc2)cc1 (stereo not drawn) [Example 246, 1-(2-(4′-((3,3-Dimethylbutyl)sulfonyl)-[1,1′-biphenyl]-4-yl)propan-2-yl)-3-(3-methylquinuclidin-3-yl)urea]
pIC50 [1]: 8.77 | pIC50 [2, 8]: 7.94 | pIC50 [3, 9]: 9.20 | pIC50 (B16 mouse melanoma cells; [10]): ≤ 5.00 | pIC50 (C32 human melanoma cells; [11]): 6.00

From US12060349B2, “Glucosylceramide synthase inhibitors” (Genzyme Corporation, priority 2012, dated 2024)
